From patent US7973075B2, “Kainate receptor-selective epimeric analogs of dysiherbaine” (priority 2007, dated 2011)
Like-named read-outs stand apart in the source and are kept apart here.

How the values were obtained:
KA2 = target: T1, KA2 (Rattus norvegicus, UniProt Q63273); test: Radioligand displacement ([3H]kainate), Example 1; assay type: binding
T1 construct: expressed in transfected cells; host or cells: HEK-293-T/17
T1 sequence (Q63273 15-979): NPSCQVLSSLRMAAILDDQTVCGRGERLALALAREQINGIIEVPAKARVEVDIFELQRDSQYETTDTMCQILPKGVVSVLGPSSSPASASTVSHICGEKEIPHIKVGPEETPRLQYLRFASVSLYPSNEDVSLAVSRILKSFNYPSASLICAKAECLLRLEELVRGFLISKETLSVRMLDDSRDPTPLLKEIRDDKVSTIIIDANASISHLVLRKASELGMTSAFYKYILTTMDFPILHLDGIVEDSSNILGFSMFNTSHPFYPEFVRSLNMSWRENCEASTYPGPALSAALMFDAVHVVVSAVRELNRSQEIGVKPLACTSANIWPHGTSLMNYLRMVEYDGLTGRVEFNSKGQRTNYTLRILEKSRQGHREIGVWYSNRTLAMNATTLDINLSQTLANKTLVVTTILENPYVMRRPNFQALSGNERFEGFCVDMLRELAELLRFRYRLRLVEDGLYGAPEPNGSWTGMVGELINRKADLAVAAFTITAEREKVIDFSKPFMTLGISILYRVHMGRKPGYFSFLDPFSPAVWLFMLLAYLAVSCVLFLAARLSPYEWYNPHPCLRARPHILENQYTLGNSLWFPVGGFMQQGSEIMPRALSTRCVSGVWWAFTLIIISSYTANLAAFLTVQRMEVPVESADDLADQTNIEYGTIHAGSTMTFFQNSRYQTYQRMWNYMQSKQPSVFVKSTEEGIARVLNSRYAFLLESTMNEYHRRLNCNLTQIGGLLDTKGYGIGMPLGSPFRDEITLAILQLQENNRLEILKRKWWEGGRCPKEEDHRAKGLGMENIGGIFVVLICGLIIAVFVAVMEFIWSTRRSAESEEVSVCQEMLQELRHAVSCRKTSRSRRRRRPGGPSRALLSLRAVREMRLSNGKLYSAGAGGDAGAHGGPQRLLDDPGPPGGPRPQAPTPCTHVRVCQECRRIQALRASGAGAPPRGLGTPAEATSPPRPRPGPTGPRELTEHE
Procedure: (§1) Dysiherbaine (DH) was used as a template for generating novel KAR ligands. (See FIG. 1.) These included 8-deoxy and 9-deoxy analogs of neodysiherbaine (neoDH). (See FIG. 2.) The binding of these analogs to glutamate receptors was assessed by radioligand binding as follows. Membrane preparations from COS-7 or HEK-T/17 cells were isolated 2-3 days after transfection. Displacement assays were performed as described previously (Swanson et al., NEURON 1997; 19:913-26). Unlabeled marine toxin analogs were used to displace [^3H]kainate or [^3H]AMPA (PerkinElmer) from kainate and AMPA receptors, respectively. (See FIG. 2 and Table 1.)
(§2) Non-specific binding was defined in the presence of 1 mM glutamate. The effect of these analogs on electrophysiology was assessed as follows. HEK 293 cells were transfected with receptor cDNAs in combination with eGFP cDNA. Patch-clamp recordings from transfected cells were made 24-72 hours later using a fast application system described previously (Swanson et al., NEURON 1997; 19:913-26). (See FIG. 3.)
(§3) Additional epimer analogs were generated. These included 4-epi-neodysiherbaine, 8-epi-neodysiherbaine, 9-epi-neodysiherbaine, and 8,9-epi-neodysiherbaine. (See FIG. 4.) The binding of these analogs to glutamate receptors was assessed by radioligand binding as described above. (See FIG. 4 and Table 2.)

GluR6 = target: T2, GluR6 (Rattus norvegicus, UniProt P42260); test: Radioligand displacement ([3H]kainate), Example 1; assay type: binding
T2 construct: expressed in transfected cells; HEK 293 (patch clamp)
Procedure: as §1, §2, §3

GluR5 = target: T3, GluR5 (Rattus norvegicus, UniProt P22756); test: Radioligand displacement ([3H]kainate), Example 1; assay type: binding
T3 construct: expressed in transfected cells; HEK 293 (patch clamp)
Procedure: as §1, §2, §3

[1] = target: T4, other KAR and AMPAR subunits; test: Radioligand binding, remaining subunits stated collectively, Example 2; conditions: estimated; read-out: Ki values at other KAR and AMPAR subunits (all subunits except those named)
T4 construct: Ki values at other KAR and AMPAR subunits (all subunits except those named); other: estimated
Procedure: (§4) Radioligand binding. Membrane preparations from HEK-293-T/17 cells were prepared and used in radioligand binding assays as described previously (Sanders et al., 2005). Unlabeled analogs were used to displace [3H]kainate (10-20 nM, PerkinElmer Life and Analytical Sciences, Boston, Mass.) or [3H]AMPA (20 nM, PerkinElmer Life and Analytical Sciences, Boston, Mass.) from KARs and AMPARs, respectively. Nonspecific binding was determined in the presence of 1 mM glutamate. After 1 hour incubation at 4° C., samples were harvested by rapid filtration onto Whatman GF/C membranes. Upon addition of scintillation fluid, membranes were incubated for 1 hour at room temperature. A Beckman LS5000TD scintillation counter was used for quantification (Beckman Coulter Inc., Fullerton, Calif.). Data were plotted and fit with a one-site competition curve with fixed minima and maxima using Prism 4 (GraphPad Software, Inc). Ki's were calculated with the Cheng-Prusoff equation using the determined IC5o values and the radioligand Kd. Data were plotted and fit with a one-site competition curve with fixed minima (0) and maxima (100) (Prism4, GraphPad Software, Inc.). Correlation analysis was performed with these binding data and the seizure activity of each analog, represented as ED50 values.
(§5) The pharmacological profiles of the Group I analogs, 8-deoxy-neoDH and 9-deoxyneoDH, were analyzed initially in radioligand binding experiments with expressed recombinant AMPA and kainate receptor subunits. Displacement of [3H]kainate from cell membranes with a range of analog concentrations yielded IC50 values that were then used to calculate Ki values for each analog/receptor combination. Both Group 1 analogs retained high affinity only for GluR5-2a KAR subunits (FIG. 8A). […] Weak binding to other KAR and AMPAR subunits was observed, with all Ki values estimated at >10 μM (n=3-5; Table 3, FIG. 8A).
(§6) For comparison, the Ki values for neoDH and MSVIII-19 are included in the table (Sanders et al., 2005). Removal of the C9 hydroxyl eliminated binding to all receptor subunits (Ki values estimated at >100 μM), with the exception of GluR5-2a KARs.

GluR7 = target: T5, GluR7 (Rattus norvegicus, UniProt P42264); test: Radioligand displacement ([3H]kainate), Example 1; assay type: binding
T5 construct: expressed in transfected cells; host or cells: COS-7 or HEK-T/17
Procedure: as §1, §2, §3

[2] = system: other KAR and AMPAR subunits; test: Radioligand binding, remaining subunits stated collectively, Example 2
Procedure: as §4, §5, §6

mice = test: Seizure (convulsant) activity after i.c.v. injection; assay type: in vivo
[3] = Tables 1-2, read-out: KA2 binding affinity (displacement of [3H]kainate)
[4] = Tables 1-2, read-out: GluR6 binding affinity (displacement of [3H]kainate)
[5] = Tables 1-2, membranes of transfected COS-7 or HEK-T/17 cells, read-out: GluR5 binding affinity (displacement of [3H]kainate)
[6] = Tables 1-2, read-out: GluR7 binding affinity (displacement of [3H]kainate)

T3 sequence (P22756 with tags, fused parts or gaps isoform P22756-2): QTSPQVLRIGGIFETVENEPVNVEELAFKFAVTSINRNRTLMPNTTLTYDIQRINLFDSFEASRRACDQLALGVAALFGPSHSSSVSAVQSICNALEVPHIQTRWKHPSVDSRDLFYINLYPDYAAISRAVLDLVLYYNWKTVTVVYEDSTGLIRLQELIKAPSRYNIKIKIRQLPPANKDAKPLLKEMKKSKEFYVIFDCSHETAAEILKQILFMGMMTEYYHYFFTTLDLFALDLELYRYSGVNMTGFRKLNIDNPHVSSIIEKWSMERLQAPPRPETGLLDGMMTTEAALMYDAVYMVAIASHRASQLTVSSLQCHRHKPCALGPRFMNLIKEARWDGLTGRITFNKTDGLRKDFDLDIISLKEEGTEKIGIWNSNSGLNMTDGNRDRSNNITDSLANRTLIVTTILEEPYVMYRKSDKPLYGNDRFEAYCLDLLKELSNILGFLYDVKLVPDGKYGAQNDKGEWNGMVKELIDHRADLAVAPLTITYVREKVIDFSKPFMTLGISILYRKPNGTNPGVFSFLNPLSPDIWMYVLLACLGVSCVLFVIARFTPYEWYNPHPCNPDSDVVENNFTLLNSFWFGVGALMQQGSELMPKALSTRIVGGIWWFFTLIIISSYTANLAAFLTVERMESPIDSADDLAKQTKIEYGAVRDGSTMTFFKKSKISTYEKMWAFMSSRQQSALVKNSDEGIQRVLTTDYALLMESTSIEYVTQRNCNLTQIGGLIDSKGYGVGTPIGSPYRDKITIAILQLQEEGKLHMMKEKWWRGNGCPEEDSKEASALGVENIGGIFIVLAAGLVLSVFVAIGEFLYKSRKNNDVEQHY
T2 sequence (P42260 32-908): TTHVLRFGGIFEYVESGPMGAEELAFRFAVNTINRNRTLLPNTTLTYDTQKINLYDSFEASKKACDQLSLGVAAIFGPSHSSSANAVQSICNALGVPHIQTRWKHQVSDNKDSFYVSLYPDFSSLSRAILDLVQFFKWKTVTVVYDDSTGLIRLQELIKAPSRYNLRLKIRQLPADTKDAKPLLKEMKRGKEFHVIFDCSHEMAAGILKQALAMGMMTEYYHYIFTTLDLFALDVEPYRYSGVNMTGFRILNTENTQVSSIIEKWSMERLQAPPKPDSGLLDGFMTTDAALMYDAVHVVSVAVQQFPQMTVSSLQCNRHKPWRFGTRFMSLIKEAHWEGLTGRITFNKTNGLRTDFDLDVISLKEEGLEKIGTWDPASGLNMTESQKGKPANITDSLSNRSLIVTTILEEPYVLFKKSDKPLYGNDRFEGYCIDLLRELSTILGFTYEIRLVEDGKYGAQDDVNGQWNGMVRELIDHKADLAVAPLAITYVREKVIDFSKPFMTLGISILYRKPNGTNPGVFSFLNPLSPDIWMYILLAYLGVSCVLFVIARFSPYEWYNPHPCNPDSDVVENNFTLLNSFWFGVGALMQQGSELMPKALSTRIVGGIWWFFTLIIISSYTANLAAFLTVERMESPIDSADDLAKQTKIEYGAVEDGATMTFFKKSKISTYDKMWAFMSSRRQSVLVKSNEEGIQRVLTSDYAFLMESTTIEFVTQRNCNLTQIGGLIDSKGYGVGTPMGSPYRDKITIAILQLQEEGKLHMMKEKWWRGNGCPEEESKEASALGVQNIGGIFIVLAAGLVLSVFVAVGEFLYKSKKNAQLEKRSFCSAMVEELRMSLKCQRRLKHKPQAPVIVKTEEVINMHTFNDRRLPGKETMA
T5 sequence (P42264 32-919): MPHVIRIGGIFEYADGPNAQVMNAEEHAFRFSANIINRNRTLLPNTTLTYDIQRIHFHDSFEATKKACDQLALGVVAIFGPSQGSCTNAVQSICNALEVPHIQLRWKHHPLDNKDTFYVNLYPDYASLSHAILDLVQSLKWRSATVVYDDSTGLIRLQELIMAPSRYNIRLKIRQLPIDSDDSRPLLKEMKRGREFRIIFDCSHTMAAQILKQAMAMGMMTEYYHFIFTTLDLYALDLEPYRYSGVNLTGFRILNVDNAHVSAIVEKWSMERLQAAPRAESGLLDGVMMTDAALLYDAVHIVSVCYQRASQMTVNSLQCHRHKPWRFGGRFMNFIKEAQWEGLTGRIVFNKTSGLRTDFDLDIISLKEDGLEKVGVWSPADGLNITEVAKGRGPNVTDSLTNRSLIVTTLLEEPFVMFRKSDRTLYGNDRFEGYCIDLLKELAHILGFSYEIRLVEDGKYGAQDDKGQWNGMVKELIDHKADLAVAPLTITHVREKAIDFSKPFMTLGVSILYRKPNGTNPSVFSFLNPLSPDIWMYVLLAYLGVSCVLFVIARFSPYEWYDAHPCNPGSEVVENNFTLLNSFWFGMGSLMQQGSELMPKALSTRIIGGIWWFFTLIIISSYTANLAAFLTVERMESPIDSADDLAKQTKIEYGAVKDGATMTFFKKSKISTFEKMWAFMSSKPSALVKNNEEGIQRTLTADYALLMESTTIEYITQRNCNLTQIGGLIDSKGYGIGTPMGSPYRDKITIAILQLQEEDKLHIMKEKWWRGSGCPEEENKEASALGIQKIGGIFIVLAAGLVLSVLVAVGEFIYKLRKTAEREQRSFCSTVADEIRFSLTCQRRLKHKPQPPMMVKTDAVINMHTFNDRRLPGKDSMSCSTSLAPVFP

Row | Structure (SMILES) | Ki (KA2; [3]) [µM] | Ki (GluR6; [4]) [µM] | Ki (GluR5; [5]) [nM] | Ki [1] [µM] | Ki (GluR7; [6]) [µM] | binding to other KA and AMPAR subunits [2] | also measured
1 | NC(CC1(C(=O)O)CC2OCC(O)C(O)C2O1)C(=O)O (stereo not drawn) [8-epi-neoDH, 8-epi-neodysiherbaine] | >100 | 22 | 34 | – | – | – | –
2 | N[C@@H](C[C@]1(C(=O)O)C[C@H]2OCC[C@@H](O)[C@H]2O1)C(=O)O [9-deoxy-neoDH] | > 100 | > 100 | 168 | > 100 | > 100 | – | –
3 | N[C@@H](C[C@@]1(C(=O)O)CC2OCC(O)C(O)C2O1)C(=O)O (single isomer, unassigned) [4-epi-neoDH, 4-epi-neodysiherbaine] | – | – | – | – | – | weakly displaced radioligand | ED50, fold lower than that of 2,4-epi-neoDH (mice; i.c.v. injection, mice): > 6 fold
4 | NC(CC1(C(=O)O)CC2OCC(O)C(O)C2O1)C(=O)O (stereo not drawn) [9-epi-neoDH, 9-epi-neodysiherbaine] | >100 | > 100 | 296 | – | > 100 | inactive at other subunits | –
5 | NC(CC1(C(=O)O)CC2OCC(O)C(O)C2O1)C(=O)O (stereo not drawn) [8,9-epi-neoDH, 8,9-epi-neodysiherbaine] | >100 | > 100 | – | – | > 100 | effectively eliminated affinity for all receptor subunits | convulsive behavior (mice; high doses): fails to elicit convulsive behavior even at high doses; Ki (GluR5; Table 2, read-out: GluR5 binding affinity (displacement of [3H]kainate)): 48000 nM
6 | N[C@@H](C[C@@]1(C(=O)O)CC2OCC(O)C(O)C2O1)C(=O)O (single isomer, unassigned) [2,4-epi-neoDH, 2,4-epi-neodysiherbaine] | – | – | – | > 100 | – | – | –
7 | N[C@@H](C[C@]1(C(=O)O)C[C@H]2OC[C@@H](O)C[C@H]2O1)C(=O)O [8-deoxy-neoDH] | – | – | – | > 10 | – | – | Ki (KA2): 36 µM; Ki (GluR6): 76 µM; Ki (GluR5): 1.1 nM; Ki (GluR7): 21 µM
